The target of the assay is T1, human PTHR1 receptor (Homo sapiens, UniProt Q03431).
T1 construct: purchased Eurofins HTS030M
T1 sequence (Q03431 27-593): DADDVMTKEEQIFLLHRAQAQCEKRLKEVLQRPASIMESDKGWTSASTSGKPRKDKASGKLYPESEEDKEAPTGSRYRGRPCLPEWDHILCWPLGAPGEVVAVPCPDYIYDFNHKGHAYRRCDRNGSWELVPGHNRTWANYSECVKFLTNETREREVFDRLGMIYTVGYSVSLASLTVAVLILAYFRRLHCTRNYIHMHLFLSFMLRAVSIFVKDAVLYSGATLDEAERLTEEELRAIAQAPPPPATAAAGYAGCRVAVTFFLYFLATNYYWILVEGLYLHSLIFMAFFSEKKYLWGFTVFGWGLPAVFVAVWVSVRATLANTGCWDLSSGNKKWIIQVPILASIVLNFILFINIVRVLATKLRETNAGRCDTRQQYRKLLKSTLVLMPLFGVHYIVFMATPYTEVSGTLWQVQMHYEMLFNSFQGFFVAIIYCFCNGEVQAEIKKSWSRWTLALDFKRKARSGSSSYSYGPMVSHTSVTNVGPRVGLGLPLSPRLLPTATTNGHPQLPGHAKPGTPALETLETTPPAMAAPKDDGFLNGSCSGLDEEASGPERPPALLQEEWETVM
Description: Competitive antagonist binding assay for hPTH-R1 (radioactive competition binding, SPA beads). The note with it: human PTHR1 membranes, [125I]-[Nle8,18,Tyr34]-PTH(1-34) 0.2 nM, 90 minutes at room temperature; read-out: hPTHR1 Ki. Summed up: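 Displacement of 0.2 nM radioiodinated [Nle8,18,Tyr34]-PTH(1-34) from membrane-bound human PTHR1 measured by scintillation proximity after 90 min at room temperature. Compounds typically 0-10,000 nM final, pH 7.4 HEPES/Mg/Ca buffer with BSA and detergent. Ki calculated from competition data.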

For `CN1C(=O)N(c2c(F)cc(NCCN[C@H]3C[C@H](O)C3)cc2F)c2cc(C#N)ccc2-c2cc(Cl)cnc21` [1-198, 4-chloro-10-{2,6-difluoro-4-[(2-{[(1r,3r)-3-hydroxycyclobutyl]amino}ethyl)amino]phenyl}-8-methyl-9-oxo-6,8,10-triazatricyclo[9.4.0.0^2,7]pentadeca-1(11),2(7),3,5,12,14-hexaene-13-carbonitrile], the inhibitory constant (Ki) is under 100 nM. Regarding `CCN1C(=O)N(c2ccc(NCCNC3CCOCC3)cc2)c2cc(Cl)ccc2-c2cc(Cl)cnc21` [2-13, 4,13-dichloro-8-ethyl-10-[4-({2-[(oxan-4-yl)amino]ethyl}amino)phenyl]-6,8,10-triazatricyclo[9.4.0.0^2,7]pentadeca-1(11),2(7),3,5,12,14-hexaen-9-one], the Ki is under 100 nM.

For the compound `CCN1C(=O)N(c2c(F)cc(NCCNCC(N)=O)cc2F)c2cc(C#N)ccc2-c2cc(Cl)cnc21` [1-162, 2-({2-[(4-{4-chloro-13-cyano-8-ethyl-9-oxo-6,8,10-triazatricyclo[9.4.0.0^2,7]pentadeca-1(11),2(7),3,5,12,14-hexaen-10-yl}-3,5-difluorophenyl)amino]ethyl}amino)acetamide], the Ki is under 100 nM.

With `CCN1C(=O)N(c2ncc(NCCNC3CCOCC3)cc2F)c2cc(Cl)ccc2-c2cc(Cl)cnc21` [2-14, 4,13-dichloro-8-ethyl-10-[3-fluoro-5-({2-[(oxan-4-yl)amino]ethyl}amino)pyridin-2-yl]-6,8,10-triazatricyclo[9.4.0.0^2,7]pentadeca-1(11),2(7),3,5,12,14-hexaen-9-one], the Ki was under 100 nM.

Take `CCN1C(=O)N(c2c(F)cc(NCCNCCO)cc2F)c2cc(C#N)ccc2-c2cc(F)ccc21` [3-18, 8-[2,6-difluoro-4-({2-[(2-hydroxyethyl)amino]ethyl}amino)phenyl]-10-ethyl-14-fluoro-9-oxo-8,10-diazatricyclo[9.4.0.0^2,7]pentadeca-1(11),2(7),3,5,12,14-hexaene-5-carbonitrile]: the Ki is under 100 nM. Regarding `CCN1C(=O)N(c2c(F)cc(NCCN3CC[C@@H](O)C3)cc2F)c2cc(C#N)ccc2-c2cc(Cl)cnc21` [1-231, 4-chloro-10-[2,6-difluoro-4-({2-[(3R)-3-hydroxypyrrolidin-1-yl]ethyl}amino)phenyl]-8-ethyl-9-oxo-6,8,10-triazatricyclo[9.4.0.0^2,7]pentadeca-1(11),2(7),3,5,12,14-hexaene-13-carbonitrile], the inhibition constant (Ki) is under 100 nM. As to `CCN1C(=O)N(c2c(F)cc(NCCN[C@@H]3CC[C@H]3O)cc2F)c2cc(C#N)ccc2-c2cc(Cl)cnc21` [1-179, 4-chloro-10-{2,6-difluoro-4-[(2-{[(1R,2R)-2-hydroxycyclobutyl]amino}ethyl)amino]phenyl}-8-ethyl-9-oxo-6,8,10-triazatricyclo[9.4.0.0^2,7]pentadeca-1(11),2(7),3,5,12,14-hexaene-13-carbonitrile], the Ki was under 100 nM. As to `CCN1C(=O)N(c2c(F)cc(NCCN[C@H]3C[C@H](O)C3)cc2F)c2cc(C#N)ccc2-c2cc(F)cnc21` [1-222, 10-{2,6-difluoro-4-[(2-{[(1r,3r)-3-hydroxycyclobutyl]amino}ethyl)amino]phenyl}-8-ethyl-4-fluoro-9-oxo-6,8,10-triazatricyclo[9.4.0.0^2,7]pentadeca-1(11),2(7),3,5,12,14-hexaene-13-carbonitrile], the Ki was under 100 nM.

For the compound `CCN1C(=O)N(c2c(F)cc(NCCN[C@H](C)CO)cc2F)c2cc(C#N)ccc2-c2cc(Cl)cnc21` [1-173, 4-chloro-10-{2,6-difluoro-4-[(2-{[(2R)-1-hydroxypropan-2-yl]amino}ethyl)amino]phenyl}-8-ethyl-9-oxo-6,8,10-triazatricyclo[9.4.0.0^2,7]pentadeca-1(11),2(7),3,5,12,14-hexaene-13-carbonitrile], the inhibitory constant (Ki) is under 100 nM. Then `CCN1C(=O)N(c2c(F)cc(NCCNCCO)cc2F)c2cc(C#N)ccc2-c2cc(Cl)cnc21` [1-55, 4-chloro-10-[2,6-difluoro-4-({2-[(2-hydroxyethyl)amino]ethyl}amino)phenyl]-8-ethyl-9-oxo-6,8,10-triazatricyclo[9.4.0.0^2,7]pentadeca-1(11),2(7),3,5,12,14-hexaene-13-carbonitrile], with under 100 nM; and `CNCCNc1ccc(N2C(=O)N(C)c3ncccc3-c3ccc(Cl)cc32)c(F)c1` [2-2, 13-chloro-10-(2-fluoro-4-{[2-(methylamino)ethyl]amino}phenyl)-8-methyl-6,8,10-triazatricyclo[9.4.0.0^2,7]pentadeca-1(11),2(7),3,5,12,14-hexaen-9-one], with 100 to 1000 nM; and `CCN1C(=O)N(c2c(F)cc(NCCNC3CCOCC3)cc2F)c2cc(Cl)ccc2-c2cc(Cl)cnc21` [1-12, 4,13-dichloro-10-[2,6-difluoro-4-({2-[(oxan-4-yl)amino]ethyl}amino)phenyl]-8-ethyl-6,8,10-triazatricyclo[9.4.0.0^2,7]pentadeca-1(11),2(7),3,5,12,14-hexaen-9-one], with under 100 nM. In the case of `CCN1C(=O)N(c2c(F)cc(NCCNCC(C)O)cc2F)c2cc(C#N)ccc2-c2cc(Cl)cnc21` (stereo not shown) [1-137, 4-chloro-10-[2,6-difluoro-4-({2-[(2-hydroxypropyl)amino]ethyl}amino)phenyl]-8-ethyl-9-oxo-6,8,10-triazatricyclo[9.4.0.0^2,7]pentadeca-1(11),2(7),3,5,12,14-hexaene-13-carbonitrile], the inhibition constant Ki was under 100 nM.

On to `CCCN1C(=O)N(c2c(F)cc(NCCNC)cc2F)c2cc(C#N)ccc2-c2cc(Cl)cnc21` [1-119, 4-chloro-10-(2,6-difluoro-4-{[2-(methylamino)ethyl]amino}phenyl)-9-oxo-8-propyl-6,8,10-triazatricyclo[9.4.0.0^2,7]pentadeca-1(11),2(7),3,5,12,14-hexaene-13-carbonitrile], for which the Ki is under 100 nM. Regarding `CNCCNc1cc(F)c(N2C(=O)N(C(C)C)c3ncc(Cl)cc3-c3ccc(Cl)cc32)c(F)c1` [1-39, 4,13-dichloro-10-(2,6-difluoro-4-{[2-(methylamino)ethyl]amino}phenyl)-8-(propan-2-yl)-6,8,10-triazatricyclo[9.4.0.0^2,7]pentadeca-1(11),2(7),3,5,12,14-hexaen-9-one], the inhibitory constant (Ki) was under 100 nM. With `CCN1C(=O)N(c2c(F)cc(NCCNC)cc2F)c2cc(C#N)cc(F)c2-c2cc(F)cnc21` [1-102, 10-(2,6-difluoro-4-{[2-(methylamino)ethyl]amino}phenyl)-8-ethyl-4,15-difluoro-9-oxo-6,8,10-triazatricyclo[9.4.0.0^2,7]pentadeca-1(11),2(7),3,5,12,14-hexaene-13-carbonitrile] the figure was under 100 nM.

Turning to `CCCN1C(=O)N(c2c(F)cc(NCCNC)cc2F)c2cc(Cl)ccc2-c2cc(Cl)cnc21` [1-40, 4,13-dichloro-10-(2,6-difluoro-4-{[2-(methylamino)ethyl]amino}phenyl)-8-propyl-6,8,10-triazatricyclo[9.4.0.0^2,7]pentadeca-1(11),2(7),3,5,12,14-hexaen-9-one], the Ki is under 100 nM.

On to `CC(C)N1C(=O)N(c2c(F)cc(NCCNCCO)cc2F)c2cc(C#N)cc(F)c2-c2cc(F)cnc21` [1-108, 10-[2,6-difluoro-4-({2-[(2-hydroxyethyl)amino]ethyl}amino)phenyl]-4,15-difluoro-9-oxo-8-(propan-2-yl)-6,8,10-triazatricyclo[9.4.0.0^2,7]pentadeca-1(11),2(7),3,5,12,14-hexaene-13-carbonitrile], for which the inhibitory constant (Ki) is under 100 nM. Then `CC(C)N1C(=O)N(c2c(F)cc(NCCNCCO)cc2F)c2cc(Cl)ccc2-c2cc(F)cnc21` [1-106, 13-chloro-10-[2,6-difluoro-4-({2-[(2-hydroxyethyl)amino]ethyl}amino)phenyl]-4-fluoro-8-(propan-2-yl)-6,8,10-triazatricyclo[9.4.0.0^2,7]pentadeca-1(11),2(7),3,5,12,14-hexaen-9-one], with under 100 nM. With `CCN1C(=O)N(c2ccc(NCCNC3CCOCC3)cc2F)c2cc(Cl)ccc2-c2cc(Cl)cnc21` [2-12, 4,13-dichloro-8-ethyl-10-[2-fluoro-4-({2-[(oxan-4-yl)amino]ethyl}amino)phenyl]-6,8,10-triazatricyclo[9.4.0.0^2,7]pentadeca-1(11),2(7),3,5,12,14-hexaen-9-one], the Ki is under 100 nM.

With `CCN1C(=O)N(c2c(F)cc(N3CCC(NCCO)C3)cc2F)c2cc(C#N)ccc2-c2cc(Cl)cnc21` (stereo not shown) [1-182, 4-chloro-10-(2,6-difluoro-4-{3-[(2-hydroxyethyl)amino]pyrrolidin-1-yl}phenyl)-8-ethyl-9-oxo-6,8,10-triazatricyclo[9.4.0.0^2,7]pentadeca-1(11),2(7),3,5,12,14-hexaene-13-carbonitrile], the inhibitory constant (Ki) was under 100 nM. Consider `CCOC(=O)CCCNc1cc(F)c(N2C(=O)N(CC)c3ncc(Cl)cc3-c3ccc(Cl)cc32)c(F)c1` [1-53, ethyl 4-[(4-{4,13-dichloro-8-ethyl-9-oxo-6,8,10-triazatricyclo[9.4.0.0^2,7]pentadeca-1(11),2(7),3,5,12,14-hexaen-10-yl}-3,5-difluorophenyl)amino]butanoate], for which the inhibition constant (Ki) lay within 1000 to 10000 nM.

Values taken from US20230159532A1, “PARATHYROID HORMONE (PTH) RECEPTOR ANTAGONISTS AND USES THEREOF” (Crinetics Pharmaceuticals, Inc., priority 2021, published 2023).
